Several values for one entry are separate records, joined by “and”; a condition that tells them apart may be missing. Identical values can stand only once. Like-named read-outs stand apart in the source and are kept apart here.
Columns and labels:
[1] = test system: CCRF-CEM human T-cell acute lymphoblastic leukemia cell line; assay: XTT cytotoxicity (cell growth inhibition), CCRF-CEM
Method in brief: (§1)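 Suspension leukemic cells (CCRF-CEM, P388 and drug-resistant sublines kept under the selecting agent) were seeded at 5×10^4 cells/mL in RPMI-1640 with 10% FBS at 37 °C. After 72 h drug exposure in duplicate, PMS-XTT was added for 4 h. Absorbance was read at 450 and 630 nm.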

[2] = test system: CCRF-CEM/Taxol®; assay: cells; assay type: cell-based, human
Method in brief: as §1

[3] = test system: CCRF-CEM/VBL100; assay: cells; assay type: cell-based, human; conditions: for IC50: read-out: IC50
Method in brief: as §1

[4] = test system: CCRF-CEM/VM1; assay: cells; assay type: cell-based, human; conditions: for IC50: read-out: IC50
Method in brief: as §1

[5] = test system: SK-N-FI; assay: cells; assay type: cell-based, human; conditions: Table 1C
Method in brief: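 Monolayer cultures grown in RPMI 1640-10% FBS at 37 °C, 5% CO2, with resistant sublines kept under their selecting agent. Cytotoxicity determined by SRB protein staining (TCA fixation, absorbance 570 nm) in duplicate at six to seven drug concentrations. ED50 obtained by median-effect plot analysis.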

[6] = test system: PC-3 Human Prostate Carcinoma; assay: PC-3 xenograft; assay type: in vivo, nude mice; conditions: for Therapeutic effect Rank Order: PC-3; for Average Body Weight, Day 5: initial weight
[7] = test system: A549 Human Lung Carcinoma; assay: A549 xenograft; assay type: in vivo, nude mice; conditions: for Average Tumor Size, Day 11: control 96; for Average Tumor Size, Day 15: control 306; for Average Tumor Size, Day 17: control 553; for Average Body Weight, Day 7: initial weight
[8] = 6 hr i.v. infusion: dEpoB 40, Taxol 24 mg/kg
[9] = PC-3 Prostate, dEpoB 40 mg/kg Q2D x 3, Taxol 15 mg/kg Q2D x 3
[10] = dEpoB 30 mg/kg 18 hr i.v. infusion, Taxol 16 mg/kg 6 hr infusion, VBL 2 and VP-16 25 mg/kg i.v. inj
[11] = dEpoB 50 mg/kg, 6 hr i.v. infusion
[12] = A549 Lung, dEpoB 40 mg/kg Q2D x 3, Taxol 15 mg/kg Q2D x 3
[13] = Q2D x 3, 6 hr i.v. infusion: dEpoB 40, Taxol 24 mg/kg
[14] = Q2D x 3: dEpoB 30 mg/kg 18 hr i.v. infusion, Taxol 15 mg/kg 6 hr infusion, VBL 2 and VP-16 25 mg/kg i.v. inj
[15] = dEpoB 50 mg/kg Q2D x 3, 6 hr i.v. infusion

C/C1=C/C[C@@H](/C(C)=C/c2csc(C)n2)OC(=O)C[C@H](O)C(C)(C)C(=O)[C@H](C)[C@@H](O)[C@@H](C)CCC1 [Desoxyepothilone B, desoxyepothilone B]
IC50 [1]: 9.5 nM
IC50 ([1]; Table 1, XTT): 9 nM
IC50 ([1]; Table 1A, XTT, 72 h): 9.5 nM
IC50 ([1]; Table 6, single determinations): 9.5 nM
IC50 ([1]; Table 7, CEM): 9.5 nM
(C)/(A) IC50 ratio [2]: 1.7
IC50 ([2]; Table 1A, XTT, 72 h, read-out: IC50): 16.2 nM
fold resistance (cross-resistance) vs parent CCRF-CEM ([3]; CCRF-CEM/VBL100 MDR cells, listed as dEpoB): 1.8 fold
IC50 ([3]; Table 1, XTT): 17 nM
(B)/(A) IC50 ratio ([3]; Table 1A, CCRF-CEM/VBL100 vs CCRF-CEM): 1.8
IC50 ([3]; Table 1A, XTT, 72 h): 17 nM
IC50 ([3]; Table 6, single determinations): 17 nM
IC50 ([3]; Table 7, CEM/VBL): 16.9 nM
IC50 [3]: 17 nM
IC50 ([4]; Table 1, XTT): 14 nM
(D)/(A) IC50 ratio ([4]; Table 1A, CCRF-CEM/VM1 vs CCRF-CEM): 1.5
IC50 ([4]; Table 1A, XTT, 72 h): 14 nM
IC50 ([4]; Table 6, single determinations): 14 nM
folds of resistance (IC50 ratio vs parent cell line) ([5]; SK-N-FI vs SK-N-As): (2.2x)
IC50 ([5]; SRB, 72 h, read-out: IC50): 46 nM
Average Body Weight (change), Day 9 [6, 8]: -1.7 g
Average Body Weight (change), Day 11 [6, 8]: -3.4 g
Average Body Weight (change), Day 13 [6, 8]: -2.7 g
Average Tumor Size (TC), Day 9 [6, 8]: 0.40 TC
Average Tumor Size (TC), Day 11 [6, 8]: 0.19 TC
Average Tumor Size (TC), Day 13 [6, 8]: 0.12 TC
Tumor Disappearance [6, 8]: 0/3
Therapeutic effect Rank Order ([6]; i.v. infusion (order wraps over rows r24-r25)): dEpoB >> VP-16
Therapeutic effect Rank Order ([6]; i.v./i.p. (order wraps over rows r11-r12)): Taxol ® > dEpoB >>
Lowest Average Tumor Size (T/C) [6, 9]: 0.12 T/C
Tumor Disappearance [6, 9]: 0
Therapeutic Effects dEpoB vs Taxol ([6]; PC-3 Prostate, dEpoB 40 mg/kg Q2D x 3 vs Taxol 15 mg/kg Q2D x 3): <<
Average Body Weight (change), Day 9 [6, 10]: -2.2 g
Average Body Weight (change), Day 11 [6, 10]: -5.9 g
Average Body Weight (change), Day 13 [6, 10]: -5.8 g
Average Tumor Size (TC), Day 9 [6, 10]: 0.17 TC
Average Tumor Size (TC), Day 11 [6, 10]: 0.06 TC
Average Tumor Size (TC), Day 13 [6, 10]: 0.06 TC
Tumor Disappearance [6, 10]: 0/3
Average Body Weight (change), Day 9 [6, 11]: -2.1 g
Average Body Weight (change), Day 11 [6, 11]: -3.0 g
Average Body Weight (change), Day 13 [6, 11]: -2.6 g
Average Tumor Size (TC), Day 9 [6, 11]: 0.37 TC
Average Tumor Size (TC), Day 11 [6, 11]: 0.13 TC
Average Tumor Size (TC), Day 13 [6, 11]: 0.03 TC
Tumor Disappearance [6, 11]: 0/3
Average Body Weight, Day 5 [6, 8]: 28.3 g
Average Body Weight, Day 5 [6, 10]: 29.4 g
Average Body Weight, Day 5 [6, 11]: 28.1 g
Therapeutic effect Rank Order ([7]; A549, i.v. infusion): Taxol ®, dEpoB, VBL > VP-16
Lowest Average Tumor Size (T/C) [7, 12]: 0.01 T/C
Tumor Disappearance [7, 12]: 1/3
Therapeutic Effects dEpoB vs Taxol ([7]; A549 Lung, dEpoB 40 mg/kg Q2D x 3 vs Taxol 15 mg/kg Q2D x 3): ≅
Average Body Weight (change), Day 11 [7, 13]: -1.6 g
Average Body Weight (change), Day 13 [7, 13]: -3.2 g
Average Body Weight (change), Day 15 [7, 13]: -2.4 g
Tumor Disappearance [7, 13]: 1/3
Average Tumor Size, Day 11 [7, 13]: 31 mm^3
Average Tumor Size, Day 15 [7, 13]: 4 mm^3
Average Tumor Size, Day 17 [7, 13]: 4 mm^3
Average Body Weight (change), Day 11 [7, 14]: -2.0 g
Average Body Weight (change), Day 13 [7, 14]: -5.8 g
Average Body Weight (change), Day 15 [7, 14]: -5.6 g
Tumor Disappearance [7, 14]: 1/3
Average Tumor Size, Day 11 [7, 14]: 17 mm^3
Average Tumor Size, Day 15 [7, 14]: 26 mm^3
Average Tumor Size, Day 17 [7, 14]: 21 mm^3
Average Body Weight (change), Day 11 [7, 15]: -2.0 g
Average Body Weight (change), Day 13 [7, 15]: -3.2 g
Average Body Weight (change), Day 15 [7, 15]: -2.5 g
Tumor Disappearance [7, 15]: 1/2
Average Tumor Size, Day 11 [7, 15]: 33 mm^3
Average Tumor Size, Day 13 ([7]; dEpoB 50 mg/kg Q2D x 3, 6 hr i.v. infusion, control 128): 19 mm^3
Average Tumor Size, Day 15 [7, 15]: 6 mm^3
Average Tumor Size, Day 17 [7, 15]: 6 mm^3
Average Body Weight, Day 7 [7, 13]: 27.8 g
Average Body Weight, Day 7 [7, 14]: 29.3 g
Average Body Weight, Day 7 [7, 15]: 27.1 g
Average Tumor Size, Day 13 ([7]; mouse, in vivo): 21 mm^3 and 19 mm^3

Source: US6603023B2 (priority 1996, dated 2003)
